How the values were obtained:
Cannabinoid receptor 1 [1] = molecular target: Cannabinoid receptor 1 (Rattus norvegicus, UniProt P20272); assay: Displacement of [3H]SR141716A from rat brain CB1 receptor
Homo sapiens = organism: Homo sapiens; assay: Selectivity index, ratio of Ki for human CB2 receptor to Ki for human CB1 receptor
[2] = Intrinsic clearance in human liver microsomes; format: ADME, Microsome
Cannabinoid receptor 1 [3] = molecular target: Cannabinoid receptor 1 (Homo sapiens, UniProt P21554); assay: Antagonist activity at human CB1 receptor transfected in CHO-K1cells by GTPgamma[35S] binding assay; format: functional, cell-based, CHO-K1
Cytochrome P450 1A2 = molecular target: T1, Cytochrome P450 1A2 (Homo sapiens, UniProt P05177); assay: Inhibition of CYP1A2; format: ADME
T1 sequence (P05177 whole entry): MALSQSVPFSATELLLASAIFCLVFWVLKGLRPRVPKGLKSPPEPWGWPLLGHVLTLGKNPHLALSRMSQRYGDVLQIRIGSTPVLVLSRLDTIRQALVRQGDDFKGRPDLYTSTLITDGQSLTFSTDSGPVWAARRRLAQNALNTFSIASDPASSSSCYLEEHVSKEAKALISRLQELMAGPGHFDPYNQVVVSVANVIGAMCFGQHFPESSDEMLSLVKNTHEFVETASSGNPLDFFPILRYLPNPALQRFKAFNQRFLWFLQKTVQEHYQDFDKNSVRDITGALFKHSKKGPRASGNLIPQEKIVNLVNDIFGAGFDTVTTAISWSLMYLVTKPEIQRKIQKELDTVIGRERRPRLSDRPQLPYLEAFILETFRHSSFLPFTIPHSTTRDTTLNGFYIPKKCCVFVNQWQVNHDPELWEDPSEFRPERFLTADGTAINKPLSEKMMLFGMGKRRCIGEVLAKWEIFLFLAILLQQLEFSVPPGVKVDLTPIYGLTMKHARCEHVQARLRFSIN

Rattus norvegicus [4] = assay: Clearance in rat at 2 mg/kg, iv; format: ADME, organism-based; design: dose 2 mg/kg, route intravenous; details: in vivo
Mus musculus [5] = assay: Effect on hypothermic activity in CP-55940-induced ICR mouse assessed as reduction in body temperature at 10 mg/kg, ip measured after 65 mins of CP-55940 challenge by tetrad assay; format: functional; design: scale not given: the % may be the effect or the level left; details: route intraperitoneal
[6] = Volume of distribution in rat at 2 mg/kg, iv; format: ADME, organism-based; design: dose 2 mg/kg, route intravenous; details: in vivo
Rattus norvegicus [7] = assay: Antiobesity activity in overnight fasted Sprague-Dawley rat assessed as reduction in food intake in at 3 mg/kg, po; format: functional; design: scale not given: the % may be the effect or the level left
Cytochrome P450 2D6 = Cytochrome P450 2D6 (Homo sapiens, UniProt P10635); assay: Inhibition of CYP2D6; format: ADME
Rattus norvegicus [8] = assay: Antiobesity activity in overnight fasted Sprague-Dawley rat assessed as reduction in food intake in at 10 mg/kg, po; format: functional; design: scale not given: the % may be the effect or the level left
[9] = Oral bioavailability in rat at 5 mg/kg; format: ADME, organism-based; details: in vivo
[10] = Half life in rat at 2 mg/kg, iv; format: ADME, organism-based; design: dose 2 mg/kg, route intravenous; details: in vivo
Mus musculus [11] = assay: Analgesic activity in CP-55940-induced ICR mouse assessed as reduction in latency to jump, kick, lick, flick paw at 10 mg/kg, ip by hotplate assay; format: functional; design: scale not given: the % may be the effect or the level left; details: route intraperitoneal
Cytochrome P450 3A4 = Cytochrome P450 3A4 (Homo sapiens, UniProt P08684); assay: Inhibition of CYP3A4; format: ADME
Cytochrome P450 2C9 = Cytochrome P450 2C9 (Homo sapiens, UniProt P11712); assay: Inhibition of CYP2C9; format: ADME
Cytochrome P450 2C19 = Cytochrome P450 2C19 (Homo sapiens, UniProt P33261); assay: Inhibition of CYP2C19; format: ADME
Sequence of Cytochrome P450 2C19 (P33261 whole entry): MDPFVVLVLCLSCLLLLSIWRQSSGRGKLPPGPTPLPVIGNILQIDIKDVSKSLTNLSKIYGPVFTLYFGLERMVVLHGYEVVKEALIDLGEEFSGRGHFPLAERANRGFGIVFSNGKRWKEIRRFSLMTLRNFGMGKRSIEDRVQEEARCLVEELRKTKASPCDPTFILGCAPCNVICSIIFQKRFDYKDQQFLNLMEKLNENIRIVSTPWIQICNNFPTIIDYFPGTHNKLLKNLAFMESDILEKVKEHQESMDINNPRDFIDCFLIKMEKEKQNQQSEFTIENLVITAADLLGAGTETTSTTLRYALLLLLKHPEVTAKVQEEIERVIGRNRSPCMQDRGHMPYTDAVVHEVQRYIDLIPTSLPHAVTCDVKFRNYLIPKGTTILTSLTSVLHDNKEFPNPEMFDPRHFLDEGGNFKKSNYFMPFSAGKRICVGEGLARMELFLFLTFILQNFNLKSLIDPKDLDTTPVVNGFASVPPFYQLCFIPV

Sequence of Cannabinoid receptor 1 (Homo sapiens, UniProt P21554) (P21554 whole entry): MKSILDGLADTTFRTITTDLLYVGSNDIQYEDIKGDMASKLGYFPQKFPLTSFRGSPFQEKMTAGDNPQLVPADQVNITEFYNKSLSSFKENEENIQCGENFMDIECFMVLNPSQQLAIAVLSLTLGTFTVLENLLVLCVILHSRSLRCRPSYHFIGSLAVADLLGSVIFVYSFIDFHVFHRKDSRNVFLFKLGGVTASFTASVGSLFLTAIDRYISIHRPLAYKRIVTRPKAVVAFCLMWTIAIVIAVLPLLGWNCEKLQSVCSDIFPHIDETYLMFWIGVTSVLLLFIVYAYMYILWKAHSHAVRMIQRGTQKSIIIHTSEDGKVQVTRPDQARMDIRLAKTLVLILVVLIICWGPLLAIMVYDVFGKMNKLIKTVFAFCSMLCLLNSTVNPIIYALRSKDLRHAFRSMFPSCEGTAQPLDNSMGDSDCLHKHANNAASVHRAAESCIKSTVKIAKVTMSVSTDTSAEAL
Sequence of Cannabinoid receptor 1 (Rattus norvegicus, UniProt P20272) (P20272 whole entry): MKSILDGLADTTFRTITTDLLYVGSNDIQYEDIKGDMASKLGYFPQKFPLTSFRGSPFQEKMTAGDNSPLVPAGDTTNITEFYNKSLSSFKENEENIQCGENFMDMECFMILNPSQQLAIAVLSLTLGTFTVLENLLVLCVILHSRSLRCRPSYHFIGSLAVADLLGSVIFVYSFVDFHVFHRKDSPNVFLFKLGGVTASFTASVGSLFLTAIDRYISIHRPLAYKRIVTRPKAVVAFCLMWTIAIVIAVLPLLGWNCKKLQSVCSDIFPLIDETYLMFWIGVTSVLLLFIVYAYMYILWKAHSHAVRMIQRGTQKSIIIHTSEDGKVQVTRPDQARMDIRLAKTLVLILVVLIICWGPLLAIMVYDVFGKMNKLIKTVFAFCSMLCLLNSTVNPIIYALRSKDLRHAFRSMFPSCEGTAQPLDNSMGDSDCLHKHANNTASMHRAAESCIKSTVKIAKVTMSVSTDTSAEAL
Sequence of Cytochrome P450 2D6 (P10635 whole entry): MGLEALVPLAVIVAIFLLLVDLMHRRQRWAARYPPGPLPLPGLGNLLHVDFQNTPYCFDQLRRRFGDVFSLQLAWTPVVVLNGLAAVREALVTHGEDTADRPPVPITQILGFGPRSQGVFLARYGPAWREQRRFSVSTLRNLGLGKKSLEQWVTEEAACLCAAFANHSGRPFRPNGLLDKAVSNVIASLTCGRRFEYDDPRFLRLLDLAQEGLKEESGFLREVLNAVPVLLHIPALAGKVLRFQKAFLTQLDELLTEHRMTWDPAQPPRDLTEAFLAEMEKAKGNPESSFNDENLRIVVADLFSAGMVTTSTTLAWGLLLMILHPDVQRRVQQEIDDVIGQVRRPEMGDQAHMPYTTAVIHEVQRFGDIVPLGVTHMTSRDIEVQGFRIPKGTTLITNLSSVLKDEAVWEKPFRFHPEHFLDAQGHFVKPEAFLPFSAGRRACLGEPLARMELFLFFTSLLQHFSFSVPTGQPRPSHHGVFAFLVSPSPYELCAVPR
Sequence of Cytochrome P450 3A4 (P08684 whole entry): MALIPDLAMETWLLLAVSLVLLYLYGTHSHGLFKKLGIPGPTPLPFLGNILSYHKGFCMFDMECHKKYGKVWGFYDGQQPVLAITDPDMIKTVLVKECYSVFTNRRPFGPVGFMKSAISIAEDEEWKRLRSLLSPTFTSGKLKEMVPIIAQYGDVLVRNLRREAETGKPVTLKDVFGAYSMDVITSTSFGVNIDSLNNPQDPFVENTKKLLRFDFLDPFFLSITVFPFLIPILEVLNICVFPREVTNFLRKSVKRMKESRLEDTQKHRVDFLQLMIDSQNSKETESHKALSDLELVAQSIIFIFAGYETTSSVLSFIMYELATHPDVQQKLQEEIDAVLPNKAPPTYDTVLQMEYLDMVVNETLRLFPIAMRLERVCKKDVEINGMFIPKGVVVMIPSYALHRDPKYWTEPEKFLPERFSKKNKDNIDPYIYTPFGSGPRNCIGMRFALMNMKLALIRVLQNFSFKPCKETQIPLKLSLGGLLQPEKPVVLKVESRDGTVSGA
Sequence of Cytochrome P450 2C9 (P11712 whole entry): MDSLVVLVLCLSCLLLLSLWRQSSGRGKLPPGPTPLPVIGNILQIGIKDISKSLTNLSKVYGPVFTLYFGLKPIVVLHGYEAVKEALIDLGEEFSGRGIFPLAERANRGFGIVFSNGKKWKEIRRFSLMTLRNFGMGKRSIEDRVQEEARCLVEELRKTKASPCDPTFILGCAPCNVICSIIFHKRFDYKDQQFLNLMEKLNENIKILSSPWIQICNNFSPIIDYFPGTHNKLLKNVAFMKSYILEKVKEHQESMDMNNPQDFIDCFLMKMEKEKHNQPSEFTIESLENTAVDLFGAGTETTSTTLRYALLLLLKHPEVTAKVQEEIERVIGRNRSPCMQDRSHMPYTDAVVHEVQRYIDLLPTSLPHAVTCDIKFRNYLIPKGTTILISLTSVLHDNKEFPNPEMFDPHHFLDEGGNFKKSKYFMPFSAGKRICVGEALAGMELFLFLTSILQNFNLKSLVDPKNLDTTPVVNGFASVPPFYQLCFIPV

| Compound | Ki (Cannabinoid receptor 1 [1]) [nM] | Ratio Ki (Homo sapiens) | Ki (Cannabinoid receptor 1 [3]) [nM] | other results |
| --- | --- | --- | --- | --- |
| Cc1c(-c2cn(C(C)(C)c3ccccc3)cn2)nn(-c2ccccc2Cl)c1-c1ccc(Cl)cc1 | 1.1 | > 100 | 0.1 |  |
| Cc1c(-c2cn(C(C)(C)c3ccccc3)cn2)nn(-c2ccc(Cl)cc2Cl)c1-c1ccc(Cl)cc1 | 1.8 | > 100 | 0.1 |  |
| Cc1c(-c2cnc(C(C)C)[nH]2)nn(-c2ccc(Cl)cc2Cl)c1-c1ccc(Cl)cc1 | 7.2 | > 100 | 9.5 | CLint scaled [2]: 42.5 mL/min/kg |
| Cc1c(-c2cn(C(C)C)cn2)nn(-c2ccccc2Cl)c1-c1ccc(Cl)cc1 | 5.3 | > 100 | 7.6 | IC50 (Cytochrome P450 1A2): > 10000 nM; clearance (Rattus norvegicus [4]): 21 mL/min/kg; Activity (Mus musculus [5]): 33%; Vd [6]: 2.5 L/kg; Activity (Rattus norvegicus [7]): -31%; IC50 (Cytochrome P450 2D6): > 10000 nM; Activity (Rattus norvegicus [8]): 44%; bioavailability [9]: 42%; half-life [10]: 1.5 h; Activity (Mus musculus [11]): 56%; IC50 (Cytochrome P450 3A4): > 10000 nM; IC50 (Cytochrome P450 2C9): > 10000 nM; IC50 (Cytochrome P450 2C19): > 10000 nM |
| CCc1c(-c2nn(-c3ccc(Cl)cc3Cl)c(-c3ccc(Cl)cc3)c2C)ncn1C(C)C | 38 | > 100 |  |  |
| Cc1c(-c2cn(Cc3ccccc3)cn2)nn(-c2ccc(Cl)cc2Cl)c1-c1ccc(Cl)cc1 | 14 | > 100 |  |  |
| Cc1c(-c2ncn(C(C)C)c2C)nn(-c2ccc(Cl)cc2Cl)c1-c1ccc(Cl)cc1 | 5.7 | > 100 | 9 |  |
| Cc1c(-c2cn(C3CCCCC3)cn2)nn(-c2ccc(Cl)cc2Cl)c1-c1ccc(Cl)cc1 | 8.6 | > 100 | 4.7 |  |
| Cc1c(-c2cn(-c3ccccc3)cn2)nn(-c2ccccc2Cl)c1-c1ccc(Cl)cc1 | 19 | > 100 | 3.8 |  |

More lines, main results first:

| Ki (Cannabinoid receptor 1 [1]) [nM] | Ratio Ki (Homo sapiens) | Ki (Cannabinoid receptor 1 [3]) [nM] | Compound | other results |
| --- | --- | --- | --- | --- |
| 31 | > 100 |  | Cc1c(-c2nc[nH]c2C(C)C)nn(-c2ccccc2Cl)c1-c1ccc(Cl)cc1 |  |
| 19 | > 100 |  | Cc1c(-c2ncn(C(C)C)c2CO)nn(-c2ccc(Cl)cc2Cl)c1-c1ccc(Cl)cc1 |  |
| 25 | > 100 |  | Cc1c(-c2cn(C3CCOCC3)cn2)nn(-c2ccc(Cl)cc2Cl)c1-c1ccc(Cl)cc1 | CLint scaled [2]: < 7 mL/min/kg |
| 9.5 | > 100 | 5.2 | Cc1c(-c2ncc(C(C)C)[nH]2)nn(-c2ccc(Cl)cc2Cl)c1-c1ccc(Cl)cc1 | CLint scaled [2]: 42.5 mL/min/kg |
| 14 | > 100 |  | Cc1c(-c2cn(C(C)(C)C)cn2)nn(-c2ccc(Cl)cc2Cl)c1-c1ccc(Cl)cc1 |  |
| 20 | > 100 |  | CCn1cnc(-c2nn(-c3ccc(Cl)cc3Cl)c(-c3ccc(Cl)cc3)c2C)c1 |  |
| 7.4 | > 100 | 7.9 | Cc1c(-c2cn(C3CC3)cn2)nn(-c2ccccc2Cl)c1-c1ccc(Cl)cc1 |  |
| 10 | > 100 | 5 | Cc1c(-c2cn(C3CCC3)cn2)nn(-c2ccc(Cl)cc2Cl)c1-c1ccc(Cl)cc1 |  |
| 4.9 | > 100 | 9 | Cc1c(-c2cn(C(C)C)cn2)nn(-c2ccc(Cl)cc2Cl)c1-c1ccc(Cl)cc1 | CLint scaled [2]: 14 mL/min/kg |
